Structures can show the parent of a compound that is named as a salt. Where two headings read alike, the source gives them in different places.
Experiments:
Format in all cases: biochemical
[1] = biological target: T1, recombinant PRL-3 (Homo sapiens, UniProt O75365); assay: In vitro phosphatase assay (DiFMUP hydrolysis), PRL-3
T1 construct: 6xHis (N, cleaved yes); made in house; host or cells: E. coli One Shot BL21 Star

[2] = biological target: T2, recombinant PRL-1 (Homo sapiens, UniProt Q93096); assay: In vitro phosphatase assay (DiFMUP hydrolysis), PRL-1
T2 construct: 6xHis (N, cleaved yes); made in house; host or cells: E. coli One Shot BL21 Star
T2 sequence (Q93096 1-173): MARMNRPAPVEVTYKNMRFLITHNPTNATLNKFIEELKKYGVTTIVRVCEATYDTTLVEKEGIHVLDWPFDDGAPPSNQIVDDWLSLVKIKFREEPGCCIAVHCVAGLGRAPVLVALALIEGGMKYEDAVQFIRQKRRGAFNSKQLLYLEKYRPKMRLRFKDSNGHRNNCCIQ

[3] = biological target: T3, recombinant PRL-2 (Homo sapiens, UniProt Q12974); assay: In vitro phosphatase assay (DiFMUP hydrolysis), PRL-2;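 also: PRL-2 activity read as DiFMUP hydrolysis after 20 min at room temperature with drug, enzyme first pre-reduced at 4 °C for 20 min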
T3 construct: 6xHis (N, cleaved yes); made in house; host or cells: E. coli One Shot BL21 Star
T3 sequence (Q12974 1-167): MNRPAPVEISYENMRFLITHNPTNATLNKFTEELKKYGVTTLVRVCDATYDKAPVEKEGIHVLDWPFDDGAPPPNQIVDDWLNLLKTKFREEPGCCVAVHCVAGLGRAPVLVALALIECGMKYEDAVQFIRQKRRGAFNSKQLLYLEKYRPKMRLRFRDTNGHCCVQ

[4] = FDA-approved drug screen, compared to DMSO

T1 sequence (O75365 whole entry): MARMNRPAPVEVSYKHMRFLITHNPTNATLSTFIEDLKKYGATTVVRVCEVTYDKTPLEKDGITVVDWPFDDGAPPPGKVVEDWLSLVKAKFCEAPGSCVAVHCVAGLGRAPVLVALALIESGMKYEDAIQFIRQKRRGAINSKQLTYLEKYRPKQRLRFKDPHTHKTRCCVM

Compound | % Phosphatase Activity (compared to DMSO) PRL-3 [1, 4] | % Phosphatase Activity (compared to DMSO) PRL-1 [2, 4] | % Phosphatase Activity (compared to DMSO) PRL-2 [3, 4] | further results
O=C(O)CCNC(=O)c1ccccc1 [Betamipron] | 75% | 98% | 95% | 
CC(C)NCC(O)COc1ccc(CCOCC2CC2)cc1.Cl (stereo not drawn) [Betaxolol hydrochloride (Betoptic)] |  |  |  | % Phosphatase Activity (compared to DMSO) PRL-3 [1]: 97%; % Phosphatase Activity (compared to DMSO) PRL-1 [2]: 84%; % Phosphatase Activity (compared to DMSO) PRL-2 [3]: 99%
CC(C)NCC(O)COc1ccc(CCOCC2CC2)cc1 (stereo not drawn) [Betaxolol] |  |  |  | % Phosphatase Activity (compared to DMSO) PRL-3 [1]: 80%; % Phosphatase Activity (compared to DMSO) PRL-1 [2]: 109%; % Phosphatase Activity (compared to DMSO) PRL-2 [3]: 124%
CC(C[N+](C)(C)C)OC(N)=O (stereo not drawn) [Bethanechol chloride] | 77% | 104% | 119% | 
C=C(c1ccc(C(=O)O)cc1)c1cc2c(cc1C)C(C)(C)CCC2(C)C [Bexarotene] | 58% | 81% | 89% | 
CC(C)(Oc1ccc(CCNC(=O)c2ccc(Cl)cc2)cc1)C(=O)O [Bezafibrate] | 90% | 123% | 119% | 
C[C@@H](O)[C@H]1C(=O)N2C(C(=O)[O-])=C(SC3Cn4cnc[n+]4C3)[C@H](C)[C@H]12 (stereo partly drawn) [Biapenem] | 93% | 100% | 74% | 
CC(O)(CS(=O)(=O)c1ccc(F)cc1)C(=O)Nc1ccc(C#N)c(C(F)(F)F)c1 (stereo not drawn) [Bicalutamide] | 99% | 118% | 108% | 
c1ccc(-c2ccc(C(c3ccccc3)n3ccnc3)cc2)cc1 (stereo not drawn) [Bifonazole] | 94% | 86% | 108% | 
O=C(O)CCCC[C@@H]1SC[C@@H]2NC(=O)N[C@@H]21 [Biotin (Vitamin B7)] | 86% | 104% | 101% | 
CC[C@H](NC(=O)[C@H](C)NC)C(=O)N1C[C@@H](O)C[C@H]1Cc1c(-c2[nH]c3cc(F)ccc3c2C[C@@H]2C[C@H](O)CN2C(=O)[C@H](CC)NC(=O)[C@H](C)NC)[nH]c2cc(F)ccc12 [Birinapant] | 138% | 138% | 129% | 
CC(=O)Oc1ccc(C(c2ccc(OC(C)=O)cc2)c2ccccn2)cc1 [Bisacodyl] | 66% | 88% | 104% | 
CC(C)NCC(O)COc1ccc(COCCOC(C)C)cc1 (stereo not drawn) [Bisoprolol fumarate] | 89% | 104% | 124% | 
Oc1c(Cl)cc(Cl)cc1Sc1cc(Cl)cc(Cl)c1O [Bithionol, reference compound] | 6% | 52% | 80% | IC50 ([1]; 2.5 µM protein, DiFMUP at KM, read-out: Calculated IC50, PRL-3 phosphatase activity): 33 ± 2 µM; IC50 ([2]; 2.5 µM protein, DiFMUP at KM, read-out: Calculated IC50, PRL-1 phosphatase activity): 79 ± 25 µM; IC50 ([3]; 2.5 µM protein, DiFMUP at KM, read-out: Calculated IC50, PRL-2 phosphatase activity): 115 ± 34 µM
C[C@H](Oc1ccc(S(C)(=O)=O)cc1C(=O)N1CCN(c2ncc(C(F)(F)F)cc2F)CC1)C(F)(F)F [Bitopertin] | 82% | 93% | 73% | 
CC(C)C[C@H](NC(=O)[C@H](Cc1ccccc1)NC(=O)c1cnccn1)B(O)O [Bortezomib (PS-341)] | 93% | 104% | 121% | 
COc1ccccc1Oc1c(NS(=O)(=O)c2ccc(C(C)(C)C)cc2)nc(-c2ncccn2)nc1OCCO [Bosentan Hydrate] | 93% | 87% | 96% | 
COc1ccccc1Oc1c(NS(=O)(=O)c2ccc(C(C)(C)C)cc2)nc(-c2ncccn2)nc1OCCO [Bosentan] | 71% | 83% | 84% | 
O=c1ccc2ccc(OCCCCN3CCN(c4cccc5sccc45)CC3)cc2[nH]1 [Brexpiprazole] | 92% | 97% | 115% | 
CCN[C@H]1CN(CCCOC)S(=O)(=O)c2sc(S(N)(=O)=O)cc21 [Brinzolamide] | 81% | 92% | 110% | 

Compound | % Phosphatase Activity (compared to DMSO) PRL-3 [1, 4] | % Phosphatase Activity (compared to DMSO) PRL-1 [2, 4] | % Phosphatase Activity (compared to DMSO) PRL-2 [3, 4] | further results
Nc1c(CC(=O)O)cccc1C(=O)c1ccc(Br)cc1 [Bromfenac Sodium] | 75% | 86% | 99% | 
CN(Cc1cc(Br)cc(Br)c1N)C1CCCCC1 [Bromhexine HCl] | 86% | 95% | 122% | 
CN(C)CCC(c1ccc(Br)cc1)c1ccccn1.O=C(O)/C=C\C(=O)O (stereo not drawn) [Brompheniramine hydrogen maleate] | 78% | 108% | 107% | 
O=[N+]([O-])C(Br)(CO)CO [Bronopol] | 86% | 103% | 96% | 
Oc1c(Br)cc(Br)c2cccnc12 [Broxyquinoline] | 72% | 94% | 101% | 
CCOc1ccc(NC(=O)CC(C)O)cc1 (stereo not drawn) [Bucetin] | 92% | 109% | 108% | 
CCCC1O[C@@H]2C[C@H]3[C@@H]4CCC5=CC(=O)C=C[C@]5(C)[C@H]4[C@@H](O)C[C@]3(C)[C@]2(C(=O)CO)O1 (stereo partly drawn) [Budesonide] | 76% | 93% | 100% | 
CCCCOc1ccc(CC(=O)NO)cc1 [Bufexamac] | 91% | 117% | 110% | 
CCCCNc1cc(C(=O)O)cc(S(N)(=O)=O)c1Oc1ccccc1 [Bumetanide] | 98% | 123% | 128% | 
CCCCN1CCCCC1C(=O)Nc1c(C)cccc1C (stereo not drawn) [Bupivacaine HCl] | 82% | 108% | 108% | 
O=C1CC2(CCCC2)CC(=O)N1CCCCN1CCN(c2ncccn2)CC1 [Buspirone HCl] | 75% | 89% | 91% | 
CS(=O)(=O)OCCCCOS(C)(=O)=O [Busulfan] | 79% | 103% | 95% | 
CCCCOC(=O)c1ccc(N)cc1 [Butamben] | 80% | 91% | 94% | 
CN(Cc1ccc(C(C)(C)C)cc1)Cc1cccc2ccccc12 [Butenafine HCl] | 88% | 117% | 112% | 
Clc1ccc(CCC(Cn2ccnc2)Sc2c(Cl)cccc2Cl)cc1 (stereo not drawn) [Butoconazole nitrate] | 98% | 97% | 109% | 
CCCCOC(=O)c1ccc(O)cc1 [Butylparaben] | 80% | 91% | 94% | 
CC[C@H](Nc1ncnc2[nH]cnc12)c1nc2cccc(F)c2c(=O)n1-c1ccccc1 [CAL-101 (Idelalisib, GS-1101)] | 77% | 102% | 104% | 
NC(=O)c1cc(N2CC2)c([N+](=O)[O-])cc1[N+](=O)[O-] [CB1954] | 105% | 100% | 74% | 
CC(C)C[C@H](NC(=O)[C@@H](NC(=O)c1cccc(-c2ccccc2)n1)[C@@H](C)O)B(O)O [CEP-18770 (Delanzomib)] | 82% | 103% | 98% | 
C=CC(=O)Nc1cccc(Nc2nc(Nc3ccc(N4CCN(C(C)=O)CC4)cc3OC)ncc2C(F)(F)F)c1 [CO-1686 (AVL-301)] | 98% | 93% | 82% | 

Source: PMC8119466, “A screen of FDA-approved drugs identifies inhibitors of protein tyrosine phosphatase 4A3 (PTP4A3 or PRL-3)” (Scientific Reports, 2021)
